Test results taken from US20080039434A1, “Treatment of Interstitial Cystitis with Vitamin D Compounds” (BioXell S. p.A., priority 2004, published 2008).
Values joined by “and” are separate entries in the source; they are usually repeats but may differ in a detail not shown here. Identical values can stand only once.

What was measured:
[1] = test system: rat bladders (CYP-induced cystitis); test: Histological analysis of rat bladders from the CYP cystitis experiment; format: in vivo
Description: Rat bladders from the experiments of Example 1 were fixed in formalin, embedded in paraffin and stained with hematoxylin and eosin by methods known in the art.
Histopathological examination was performed on at least 10 sections per bladder. Different inflammatory parameters were considered:
infiltration of inflammatory cells (mostly lymphocytes and monocytes)
and were scored as follows: 0=normal without any sign of inflammation, 1=mild, 2=moderate, 3=severe, 4=severe signs diffused across all of the section.
Table 3 refers to vehicle treated animals and Table 4 to “Compound A” treated animals. Each inflammatory parameter was scored from 0 to 4, where 0 is normal and 4 the most severe symptom.

MMCP1 protein = test: Serum level of mast-cell derived chymase MMCP1 protein, allergic IC in mice; format: in vivo, mouse
Description: (§1) Mice (BALB/c, females 8 weeks old, weight 18-20 g, Charles River, Calco ITA) were sensitized by injecting 10 ug/mouse of chicken ovalbumin from Sigma (OVA, grade V) in the presence of 4 mg of alum (SERVA, Germany) by intraperitoneal injection, once a week for 4 weeks. This induces a sustained level of IgE detectable in serum.
(§2) One or two weeks after the last immunization boost, sensitized mice were anesthetized (1.5% Isoflurane) and then trans-urethrally catheterized (24 gauge, ¾ in.; Angiocath, Becton-Dickson). Slight digital pressure was applied the lower abdomen to drain the urine.
(§3) The urinary bladders were instilled with either 150 ul of either saline or OVA alone, (1 mg/150 ul) infused at a slow rate to avoid trauma and vesico-ureteral reflux and repeated twice within a 30-min interval with the syringe kept in place on the catheter for at least 30 min. Intravesical challenge was repeated 7-10 days after the first one with the same procedure.
Treatment Group: 10 mice were treated with oral vitamin D3 analogue (1-alpha-fluoro-25-hydroxy-16,23Ediene-26,27-bishomo-20-epi-cholecalciferol) Compound “B” for 14 days (daily dose of either 30 or 75 ug/kg).
(§4) An ethanol stock solution of Compound B (1 mg/ml) was dissolved in Miglyol vehicle at the appropriate concentration. Control animals received the vehicle containing the same amount of ethanol. Drug (or vehicle) treatment was carried out by daily gavage after weighing the animal. Drug solution was prepared calculating a final volume of 100 ul/10 grams body weight, and treatment was started on the day of the first intravesical ovalbumin challenge, maintained daily, but discontinued over the weekends, for 12 days total treatment. FIG. 7 illustrates the timeline of the experiment.
(§5) Experiments in Example 7 were performed according to the general procedures described previously in Example 6. Mice were challenged with saline (untreated) or ovalbumin (treatment with vehicle or one of Compounds C-I at a dosage indicated in Table 6 in ug/kg).

[2] = Calcemia assessment in allergic IC mice (colorimetric serum calcium assay); format: in vivo, mouse; set-up: serum calcium levels: dose or concentration left out as unconfirmed
Description: Serum calcemia was evaluated by a commercially available colorimetric assay (Calcium Dry-Fast, Sentinel CH. Italy). Briefly, 10 ul serum were added to 100 ul reaction solution prepared according to the manufacturer's procedure in a 96-wells plate. After 5 min incubation at RT samples were read at 570 nm with a spectrophotometer and the calcium levels were calculated in triplicate by using a standard reference as directed.

[3] = test system: allergen-induced chronic bladder inflammation; test: Efficacy ranking in the allergen-induced chronic bladder inflammation model of interstitial cystitis; format: in vivo, mouse; conditions: each compound at its tested dosage
Description: as §5
Summarizing all the results presented above in Example 7, we can conclude that these compounds can be ranked with respect to their efficacy in reducing several parameters measuring inflammation of the bladder in the allergen-induced chronic bladder inflammation model of interstitial cystitis.

[4] = test system: ovalbumin-challenged mouse bladder; test: Blind histological analysis of bladder sections, allergic IC in mice; format: in vivo
Description: as §1, §2, §3, §4
Bladders were explanted from the animals, longitudinally divided in two moieties, one half was either immediately fixed in formalin (10% buffered) for at least 3 hrs or snap frozen in liquid nitrogen upon inclusion in OCT freezing medium (Tissue-Tek Sakura). For histological analysis, fixed bladders were further processed and finally paraffin embedded. Five um sections were serially cut then stained with GIEMSA (BDH, 20% solution, 3 hrs RT) and then de-stained in 0.1% acetic acid for 10 sec. After a clarification step in Xylene, slides were permanently mounted with Eukitt medium and analyzed by a pathologist in a blinded fashion in order to evaluate for inflammatory cell infiltrate, mast cell numbers, and the presence of interstitial edema. A semi-quantitative histological score was used, assigning: 1 for mild infiltrate, no edema; 2 for intermediate infiltration, little edema; and 3 for severe infiltration and edema.
as §5

MCPT2 = test: Taq-Man analysis of bladder mRNA, allergic IC in mice: MCPT2; format: in vivo, mouse; conditions: ovalbumin challenged; 30 and 75 ug/kg oral, dose dependent; pooled samples
Description: as §1
One or two weeks after the last immunization boost, sensitized mice were anesthetized (1.5% Isoflurane) and then trans-urethrally catheterized (24 gauge, ¾ in.; Angiocath, Becton-Dickson). Slight digital pressure was applied the lower abdomen to drain the urine. […]
Total RNA was extracted from one half of bladder by using RNeasy Mini kit (Qiagen), treated with DNase 1 (Qiagen) and reverse transcription performed with Reverse Transcription Reagent (Applied Biosystems) with Random Hexamers (according to the manufacturer's instructions). cDNA was synthesized from 1 ug of RNA. […] Reaction was run on an SDS 7000 (Applied Biosystems) instruments, with the following amplification program: 2′ at 50° C.; 10′ at 95° C.; 15″ at 95° C. and 1′ at 60° C. for 40 cycles; Cycle threshold (Ct) values were exported into Excel Worksheets for analysis and relative quantitations were performed using the ΔCt method. […]

IL-13 = test: Taq-Man analysis of bladder mRNA, allergic IC in mice: IL-13; format: in vivo, mouse; conditions: ovalbumin challenged
Description: as §1, §2, §3, §4
Total RNA was extracted from one half of bladder by using RNeasy Mini kit (Qiagen), treated with DNase 1 (Qiagen) and reverse transcription performed with Reverse Transcription Reagent (Applied Biosystems) with Random Hexamers (according to the manufacturer's instructions). cDNA was synthesized from 1 ug of RNA. Real-Time PCR was performed in 96-well optical reaction plates (Applied Biosystems). For each sample we amplified both the target gene and the housekeeping gene (HPRT) in different wells (singleplex) and in duplicate. The amplification Master Mix was prepared according to the following protocol (volumes refer to a single well with a final volume of 40 ul/well)): 2× TaqMan® R Universal PCR Master Mix (Applied Biosystems, 4304437): 20 ul; 20× Assay target gene: 2 ul; H2O: 8 ul; cDNA: 10 ul. Reaction was run on an SDS 7000 (Applied Biosystems) instruments, with the following amplification program: 2′ at 50° C.; 10′ at 95° C.; 15″ at 95° C. and 1′ at 60° C. for 40 cycles; Cycle threshold (Ct) values were exported into Excel Worksheets for analysis and relative quantitations were performed using the ΔCt method. All primers used carried the FAM reporter.
as §5

[5] = Body weight in allergic IC mice; format: in vivo, mouse; conditions: 75 ug/kg oral vs control animals; daily timepoints
Description: as §4

[6] = individual rats, score 0 (normal) to 4 (most severe), Compound A 0.1 μg/kg oral 14 days
[7] = mean of 4 Compound A treated rats, score 0-4
[8] = 75 ug/kg oral vs vehicle, p<0.05
[9] = 75 ug/kg oral vs vehicle, p<0.01

Q: For CC(=O)OC1C/C(=C/C=C2\CCC[C@]3(C)C(C(C)C/C=C\C(O)(C(F)(F)F)C(F)(F)F)=CCC23)C[C@@H](OC(C)=O)C1 (stereo partly shown) [Compound A, 1,3-Di-O-acetyl-1,25-dihydroxy-16,23Z-diene-26,27-hexafluoro-19-nor-cholecalciferol], which “EPITHELIAL EROSION histological score” value [1, 6] is on record?
A: The value was 0.

Q: What about the FIBROSIS histological score [1, 6] of the same compound?
A: The FIBROSIS histological score was 0.

Q: What about the HEMOSTASIS histological score [1, 6] of the same compound?
A: The HEMOSTASIS histological score was 0 and 1 and 0.5 (2×).

Q: And the INFILTRATION histological score [1, 6]?
A: The INFILTRATION histological score was 0.5 (2×) and 1 and 2.

Q: And the EDEMA histological score ([1]; individual rats, score 0 normal, 1 mild, 2 moderate, 3 severe, 4 severe diffused, Compound A 0.1 μg/kg oral 14 days)?
A: Its EDEMA histological score is 0.5 and 0 (2×) and 2.

Q: And the “EDEMA histological score, MEAN” value [1, 7]?
A: Its value is 0.63.

Q: What about the “EPITHELIAL EROSION histological score, MEAN” value [1, 7] of the same compound?
A: Its value is 0.

Q: What about the “FIBROSIS histological score, MEAN” value [1, 7] of the same compound?
A: Its value is 0.

Q: What about the “HEMOSTASIS histological score, MEAN” value [1, 7] of the same compound?
A: Its value is 0.5.

Q: What about the “INFILTRATION histological score, MEAN” value [1, 7] of the same compound?
A: Its value is 1.

Q: What about the “serum level of the MMCP1 protein” value (MMCP1 protein; ovalbumin challenged vs vehicle, oral ug/kg: A 0.1, E 0.3, F 30, F p<0.05, A, E p<0.001) of the same compound?
A: The value was “statistically significant reduction”.

Q: And the “serum calcium levels relative to the vehicle treated control group” value ([2]; oral ug/kg: C 3, A 0.1, E 0.3, F 30, G 100, H 1, I 3, elevations p<0.001)?
A: Its value is “no significant increase”.

Q: And the “Efficacy ranking in reducing parameters of bladder inflammation” value [3]?
A: The value was “Compound E>Compound F>Compound B>Compound H>Compound I>Compound A>Compound A=Compound G”.

Q: What about the “numbers of eosinophils in the bladder wall” value ([4]; 0.1 ug/kg oral vs vehicle, p<0.05) of the same compound?
A: Its value is “significantly reduced numbers”.

Q: With C=C1/C(=C\C=C2/CCC[C@]3(C)C([C@@H](C)C/C=C/C(O)(CC)CC)=CC[C@@H]23)C[C@@H](O)C[C@@H]1F [Compound B, 1-alpha-fluoro-25-hydroxy-16,23E-diene-26,27-bishomo-20-epi-cholecalciferol] as the compound, how does the “serum levels of chymase MMCP1 protein” value (MMCP1 protein; [8]) read?
A: The value was “significantly lower”.

Q: What about the “expression of inflammatory marker MCPT2” value (MCPT2) of the same compound?
A: Its value is “significantly reduces”.

Q: What about the serum calcium level [2, 8] of the same compound?
A: Its serum calcium level is “small, but statistically significant increase”.

Q: What about the “calcemic levels relative to the toxicity threshold” value ([2]; 75 ug/kg oral, toxicity threshold 10.7 mg/dl in mice) of the same compound?
A: The value was “did not cause calcemic levels to rise above the toxicity threshold”.

Q: What about the serum calcium levels ([2]; lower dosage, not shown) of the same compound?
A: The serum calcium levels was “No significant changes”.

Q: And the “Efficacy ranking in reducing parameters of bladder inflammation” value [3]?
A: The value was “Compound E>Compound F>Compound B>Compound H>Compound I>Compound A>Compound A=Compound G”.

Q: What about the “expression of inflammatory marker IL-13” value (IL-13; 75 ug/kg oral, individual animals) of the same compound?
A: Its value is “down-modulates”.

Q: What about the “expression of inflammatory marker IL-13” value (IL-13; 30 and 75 ug/kg oral, dose dependent, pooled samples) of the same compound?
A: Its value is “significantly reduces”.

Q: And the body weight [5]?
A: The body weight was “no significant difference”.

Q: And the “edema in bladder sections” value ([4]; 75 ug/kg oral vs vehicle, p<0.001)?
A: The value was “completely resolved”.

Q: What about the “eosinophils in bladder sections” value [4, 9] of the same compound?
A: The value was “significant reduction”.

Q: What about the “lymphocytes in bladder sections” value [4, 9] of the same compound?
A: The value was “significant reduction”.

Q: And the “mast cells in bladder sections” value [4, 8]?
A: The value was “significant reduction”.

Q: And the “signs of edema in representative bladder slides” value ([4]; 75 ug/kg oral, FIG. 16, x50 magnification)?
A: Its value is “no signs of edema”.
